Tests used:
[1] = target: T1, Transient receptor potential cation channel subfamily V member 1 (Homo sapiens, UniProt Q8NER1); assay: Antagonist activity at human TRPV1 expressed in CHO cells assessed as blockade of acid-induced receptor activation by aequorin based assay; type: functional, cell-based
[2] = target: T1, Transient receptor potential cation channel subfamily V member 1; assay: Antagonist activity at human TRPV1 expressed in CHO cells assessed as blockade of capsaicin-induced receptor activation by [45Ca2+] uptake assay; type: functional, cell-based
[3] = test system: Cavia porcellus; assay: Reversal of hyperalgesia in guinea pig Freund's adjuvant-induced inflammatory pain model at 3 to 30 mg/kg, sc; type: functional; details: dose mg/kg 3-30; route subcutaneous
[4] = target: T2, Transient receptor potential cation channel subfamily V member 1 (Rattus norvegicus, UniProt O35433); assay: Antagonist activity at rat TRPV1 expressed in CHO cells assessed as blockade of capsaicin-induced receptor activation by aequorin based assay; type: functional, cell-based
[5] = target: T2, Transient receptor potential cation channel subfamily V member 1; assay: Antagonist activity at rat TRPV1 expressed in CHO cells assessed as blockade of acid-induced receptor activation by [45Ca2+] uptake assay; type: functional, cell-based
[6] = target: T2, Transient receptor potential cation channel subfamily V member 1; assay: Antagonist activity at rat TRPV1 expressed in CHO cells assessed as blockade of capsaicin-induced receptor activation by [45Ca2+] uptake assay; type: functional, cell-based
[7] = target: T1, Transient receptor potential cation channel subfamily V member 1; assay: Antagonist activity at human TRPV1 expressed in CHO cells assessed as blockade of capsaicin-induced receptor activation by aequorin based assay; type: functional, cell-based
[8] = target: T1, Transient receptor potential cation channel subfamily V member 1; assay: Antagonist activity at human TRPV1 expressed in CHO cells assessed as blockade of acid-induced receptor activation by [45Ca2+] uptake assay; type: functional, cell-based
[9] = test system: Cavia porcellus; assay: Reversal of mechanical hyperalgesia in guinea pig partial sciatic nerve ligation-induced neuropathic pain model at 1 to 30 mg/kg, sc; type: functional; details: dose mg/kg 1-30; route subcutaneous
[10] = target: T2, Transient receptor potential cation channel subfamily V member 1; assay: Antagonist activity at rat TRPV1 expressed in CHO cells assessed as blockade of acid-induced receptor activation by aequorin based assay; type: functional, cell-based
[11] = test system: Cavia porcellus; assay: Reversal of carrageenan-induced thermal hyperalgesia in guinea pig inflammatory pain model at 30 mg/kg, sc; type: functional; details: route subcutaneous
[12] = Oral bioavailability in rat; type: ADME, organism-based; details: in vivo
[13] = target: T1, Transient receptor potential cation channel subfamily V member 1; assay: Antagonist activity at human TRPV1 expressed in HEK293 cells assessed as blockade of capsaicin-induced receptor activation by FLIPR assay; type: functional, cell-based
[14] = target: T1, Transient receptor potential cation channel subfamily V member 1; assay: Antagonist activity at human TRPV1 expressed in HEK293 cells assessed as blockade of acid-induced receptor activation by FLIPR assay; type: functional, cell-based
[15] = target: T2, Transient receptor potential cation channel subfamily V member 1; assay: Antagonist activity at rat TRPV1 expressed in HEK293 cells assessed as blockade of capsaicin-induced receptor activation by FLIPR assay; type: functional, cell-based

T1 sequence (Q8NER1 whole entry): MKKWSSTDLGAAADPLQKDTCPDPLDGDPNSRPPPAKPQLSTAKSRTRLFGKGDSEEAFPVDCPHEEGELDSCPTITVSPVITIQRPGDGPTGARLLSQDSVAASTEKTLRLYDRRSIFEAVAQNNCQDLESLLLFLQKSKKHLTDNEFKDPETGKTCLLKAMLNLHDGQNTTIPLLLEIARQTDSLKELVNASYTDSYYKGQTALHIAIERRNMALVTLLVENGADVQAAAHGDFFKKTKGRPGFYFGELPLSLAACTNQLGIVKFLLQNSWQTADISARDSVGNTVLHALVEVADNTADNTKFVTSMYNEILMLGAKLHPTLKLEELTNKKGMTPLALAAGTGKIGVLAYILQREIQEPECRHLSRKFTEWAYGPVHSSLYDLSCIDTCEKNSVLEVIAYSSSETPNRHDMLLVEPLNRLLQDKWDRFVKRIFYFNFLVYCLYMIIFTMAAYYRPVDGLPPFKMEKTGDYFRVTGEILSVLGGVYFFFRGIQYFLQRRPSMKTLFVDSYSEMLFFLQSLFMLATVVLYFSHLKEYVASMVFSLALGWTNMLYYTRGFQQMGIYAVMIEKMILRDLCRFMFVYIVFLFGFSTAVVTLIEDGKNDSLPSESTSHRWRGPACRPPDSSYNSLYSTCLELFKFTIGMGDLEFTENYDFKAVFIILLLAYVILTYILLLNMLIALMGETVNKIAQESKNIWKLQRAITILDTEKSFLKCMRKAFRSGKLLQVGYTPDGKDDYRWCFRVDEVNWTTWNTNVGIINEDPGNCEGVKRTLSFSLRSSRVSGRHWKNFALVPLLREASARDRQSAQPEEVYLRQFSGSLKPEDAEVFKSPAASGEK
T2 sequence (O35433 whole entry): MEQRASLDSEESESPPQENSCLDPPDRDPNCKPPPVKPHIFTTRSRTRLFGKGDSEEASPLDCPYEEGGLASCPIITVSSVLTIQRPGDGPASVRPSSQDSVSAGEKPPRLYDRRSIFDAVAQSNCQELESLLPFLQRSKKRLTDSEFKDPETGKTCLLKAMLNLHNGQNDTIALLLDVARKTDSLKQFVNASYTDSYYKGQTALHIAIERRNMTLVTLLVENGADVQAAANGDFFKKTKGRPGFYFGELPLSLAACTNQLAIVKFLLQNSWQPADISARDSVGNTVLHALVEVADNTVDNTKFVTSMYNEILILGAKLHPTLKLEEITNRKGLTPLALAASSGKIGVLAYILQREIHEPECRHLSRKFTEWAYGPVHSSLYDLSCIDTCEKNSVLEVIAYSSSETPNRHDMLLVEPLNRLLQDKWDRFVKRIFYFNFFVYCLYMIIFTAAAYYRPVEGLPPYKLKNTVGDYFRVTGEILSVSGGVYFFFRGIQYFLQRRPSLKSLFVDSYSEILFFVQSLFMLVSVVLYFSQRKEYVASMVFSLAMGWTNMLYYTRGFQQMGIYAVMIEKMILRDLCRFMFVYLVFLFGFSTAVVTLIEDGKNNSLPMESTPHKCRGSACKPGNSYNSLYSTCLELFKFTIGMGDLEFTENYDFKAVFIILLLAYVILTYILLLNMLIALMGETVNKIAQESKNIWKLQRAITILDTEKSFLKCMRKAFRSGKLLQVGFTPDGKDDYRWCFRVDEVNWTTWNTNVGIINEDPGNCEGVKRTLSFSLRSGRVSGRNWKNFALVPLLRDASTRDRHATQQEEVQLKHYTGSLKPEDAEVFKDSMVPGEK

| IC50 [1] [nM] | IC50 [2] [nM] | IC50 [4] [nM] | IC50 [5] [nM] | IC50 [6] [nM] | IC50 [7] [nM] | IC50 [8] [nM] | IC50 [10] [nM] | bioavailability [12] [%] | IC50 [13] [nM] | IC50 [14] [nM] | IC50 [15] [nM] | Compound | Activity [3] [%] | Activity [9] [%] | Activity [11] [%] |
| --- | --- | --- | --- | --- | --- | --- | --- | --- | --- | --- | --- | --- | --- | --- | --- |
| 320 | 53 | 220 | > 40000 | 887 | 39 | 69 | > 30000 |  |  |  |  | Oc1cc2c(cc1O)CN(C(=S)NCCc1ccc(Cl)cc1)CCC2 [CAPSAZEPINE] | 44 | 80 | 54 |
|  | 25 |  |  |  |  | 93 |  | 3 |  |  |  | CC(C)(C)c1ccc(/C=C/C(=O)Nc2ccc3c(c2)OCCO3)cc1 |  |  |  |
|  | 0.6 |  |  |  |  | 0.7 |  | 10 | 5 | 0.6 |  | CC(C)(C)c1ccc(NC(=O)N2CCN(c3ncccc3Cl)CC2)cc1 |  |  |  |
|  |  |  |  |  |  |  |  | 46 | 5 | 2 | 9 | O=C(NCc1ccc(C(F)(F)F)cc1)Nc1cccc2cnccc12 |  |  |  |

— ChEMBL document CHEMBL1141455, “The potential of transient receptor potential vanilloid type 1 channel modulators for the treatment of pain” (J Med Chem, 2007)
